From patent publication US20240238218A1, “[…] A […] ACTIVE COMPOUND AND METHOD OF PREPARATION THEREOF” (GW Research Limited, priority 2021, published 2024)

Tests used:
[1] = tested on: mouse model of generalised seizure (tonic hind limb extensor convulsions); test: mini-MEST (maximal electroshock seizure threshold, minimal sample sizes) test in the mouse; settings: 2.5 mg/kg i.p., 30 min post dose
Description: The maximal electroshock seizure threshold (MEST) test is widely utilized preclinically to evaluate pro- or anti-convulsant properties of test compounds (Loscher et al., 1991).
(§1) In the MEST test the ability of a drug to alter the seizure threshold current required to induce hind limb tonic extensor convulsions is measured according to an “up and down” method of shock titration (Kimball et al., 1957). An increase in seizure threshold is indicative of anti-convulsant effect.
(§2) The ability of a test compound to alter the stimulus intensity, expressed as current (mA), required to induce the presence of tonic hind limb extensor convulsions, is assessed in the MEST.
(§3) All animals were weighed at the beginning of the study and randomly assigned to treatment groups based on a mean distribution of body weight across groups.
The first animal within a treatment group was given a shock at the expected or estimated CC50 current. For subsequent animals, the current was lowered or raised depending on the convulsions outcome from the preceding animal in log scale intervals.
(§4) Data generated from each treatment group were used to calculate the CC50±SEM values for the treatment group.
Vehicle: (5% ethanol, 10% solutol in 85% Saline) was prepared as follows: 1 mL of ethanol, 2 mL of solutol were warmed to 60° C., in 17 mL of saline (1:2:17).
The test compound, described herein as Compound I, is as shown as Formula I. Test compound was administered at 50 mg/kg (i.p.) in a 1:2:17 ethanol:solutol:0.9% saline formulation.
(§5) The data for each treatment group were recorded as the number of +'s and 0's at each current level employed and this information is then used to calculate the CC50 value (current required for 50% of the animals to show seizure behaviour)±standard error.
(§6) Test compound effects were also calculated as percentage change in CC50 from the vehicle control group.
(§7) Significant difference between drug-treated animals and controls were assessed according to Litchfield and Wilcoxon (1949).

[2] = tested on: mouse model of generalised seizure (tonic hind limb extensor convulsions); test: Maximal electroshock seizure threshold (MEST) test in the mouse; settings: 2.5 mg/kg i.p., 30 min post dose
Description: The efficacy of the novel resorcinol according to the compound of Formula I was tested in a mouse model of generalised seizure, the maximal electroshock seizure threshold (MEST) test.
as §1, §2, §3
The first animal within a treatment group was given a shock at the expected or estimated CC50 current. For subsequent animals, the current was lowered or raised depending on the convulsions outcome from the preceding animal, in intervals of 5 mA.
as §4
Vehicle: (5% ethanol, 5% Kolliphor® EL, 90% Saline) was prepared as follows: 2 mL of ethanol, 2 mL of Kolliphor® EL were warmed to 60° C., in 36 mL of saline (1:1:18).
The test compound, described herein as Compound I, is as shown as Formula I. Test compound was administered at 1, 5, 20, 50, 100 and 200 mg/kg (i.p.) in a 1:2:17 ethanol:solutol:0.9% saline formulation.
as §5, §6, §7

DBA/2 mice = test: DBA/2 mouse audiogenic seizure test; assay type: in vivo; settings: 180 mg/kg i.p.
Excerpt: The DBA/2 audiogenic seizure test, which detects anticonvulsant activity, follows that described by Dürmüller et al. (NeuroReport, vol. 4, no. 6, pages 683-686, 1993).
60 male DBA/2 mice (3-4 weeks old) were included in the experiment (weight range 8-11 g at the beginning of the experiment). Animals were acclimatized to the test facility for 1 day after delivery and randomly housed in groups of 5 in macrolon cages on wood litter with free access to food and water.
Mice were individually transferred (at 3-5 minutes intervals) from the preparation room into an adjacent experimental room and body temperature was measured using a rectal thermometer. Immediately after, they were placed in a Plexiglas jar (Diameter=40 cm; Height=35 cm) mounted with an electric bell. Upon activating the bell, the occurrences and latencies to wild running fits, clonic and tonic seizures were measured. Deaths were also recorded. The bell was activated until a tonic seizure occured or for a maximum of 60 seconds.
The experiment included 6 groups (10 mice were studied per group). Experimenters were blinded to the treatment groups.
The test substance was evaluated at 4 doses, administered i.p. (10 mL/kg) 30 or 60 minutes before the test, and compared with a vehicle control group. Doses and pre-treatment times were based on previous pharmacokinetic data.
(§8) Test compound: Compound I dissolved in 5% ethanol, 10% Kolliphor HS15, 85% physiological saline.
(§9) Vehicle control: 5% ethanol, 10% Kolliphor HS15, 85% physiological saline.
Reference: Valproate (180 mg/kg), dissolved in 5% ethanol, 10% Kolliphor HS15, 85% physiological saline.
Quantitative data (latencies) with the test substance were analyzed by comparing treated groups with vehicle control using Kruskal-Wallis test followed by Dunn's multiple comparisons test. Quantitative data with the reference substance were analyzed using Mann-Whitney U test.
Quantal data (frequencies) were analyzed by comparing treated groups with vehicle control using Fisher's Exact Probability tests.

RjOrl: Swiss mice = test: Mouse 6 Hz (44 mA) psychomotor seizure test; assay type: in vivo; settings: 300 mg/kg i.p.
Excerpt: The 6 Hz Psychomotor Test, which detects anticonvulsant activity, follows that described by Brown et al. (J. Pharmacol. Exp. Ther. 107, 273-283, 1953).
Male RjOrl: Swiss mice, 5 weeks old, weighing 28-38 g at the beginning of the experiment. Animals were acclimatized to the test facility for at least 5 days after delivery and randomly housed in groups of 3-4 in macrolon cages on wood litter with free access to food and water.
Before transcorneal stimulation, a drop of tetracaine solution (2%) was applied on each eye of the mouse for local anesthesia. Between 1-10 minutes later, at the pre-treatment time specified for the test compound, the mice were administered a rectangular current (44 mA, rectangular pulse: 0.2 ms pulse width, 3 s duration, 6 Hz) via corneal electrodes connected to a constant current shock generator.
The number of seizures as reflected by forelimb clonus were recorded immediately after current administration. Forelimb clonus was scored as absent (0=no forelimb clonus), mild (1=clonus with one forelimb) and strong (2=clonus with both forelimbs).
[…] The experimenters were blinded to the treatment. The cages were randomly assigned to a treatment code, each designating one treatment group.
Compound I was administered intraperitoneally at 20 and 50 mg/kg, 30 minutes before the test, and at 100 and 200 mg/kg, 60 minutes before the test and were compared with the vehicle control (5% ethanol, 10% […], 85% physiological saline).
Valproate (300 mg/kg i.p.), administered 30 minutes before the test, was used as reference substance and was compared with the vehicle control (5% ethanol, 10% Kolliphor HS15, 85% physiological saline).
as §8, §9
Reference: Valproate (300 mg/kg), dissolved in 5% ethanol, 10% Kolliphor HS15, 85% physiological saline.
Data were assumed to be non-normally distributed based on validation data, therefore non-parametric tests were utilized. Quantitative data (scores) with the test substance were analyzed by comparing treated groups with the corresponding vehicle control using Kruskal-Wallis test with Dunn's multiple comparisons test when the Kruskal-Wallis Test was significant. Quantitative data with the reference substance was analysed using Mann-Whitney U test.

[3] = 30 min before the test, bell maximum 60 seconds
[4] = 30 min before the test, listed as valproate

SMILES: CN1C(=O)CN=C(c2ccccc2)c2cc(Cl)ccc21 [Diazepam, diazepam, reference compound]
- % change from vehicle (CC50) [1]: 279%
- % change from vehicle (CC50) [2]: 449%

SMILES: CCCC(CCC)C(=O)O [Valproate, reference compound]
- Adverse signs (DBA/2 mice): No adverse signs were noted
- Clonic convulsion, Presence, % (DBA/2 mice; 30 min before the test): 0%
- Clonic convulsion, Presence, Compared with Vehicle (i.p.) % (DBA/2 mice; 30 min before the test): −100%
- Clonic convulsion, Presence, Total (DBA/2 mice; 30 min before the test): 0/10
- Death, Presence, % (DBA/2 mice; 30 min before the test): 0%
- Death, Presence, Compared with Vehicle (i.p.) % (DBA/2 mice; 30 min before the test): −100%
- Death, Presence, Total (DBA/2 mice; 30 min before the test): 0/10
- Tonic extension, Presence, % (DBA/2 mice; 30 min before the test): 0%
- Tonic extension, Presence, Compared with Vehicle (i.p.) % (DBA/2 mice; 30 min before the test): −100%
- Tonic extension, Presence, Total (DBA/2 mice; 30 min before the test): 0/10
- Wild running, Presence, % (DBA/2 mice; 30 min before the test): 0%
- Wild running, Presence, Compared with Vehicle (i.p.) % (DBA/2 mice; 30 min before the test): −100%
- Wild running, Presence, Total (DBA/2 mice; 30 min before the test): 0/10
- Clonic convulsion, Latency (s) Median (DBA/2 mice; [3]): 60.0 s
- Tonic extension, Latency (s) Median (DBA/2 mice; [3]): 60.0 s
- Wild running, Latency (s) Median (DBA/2 mice; [3]): 60.0 s
- Clonic convulsion, Presence, Compared with Vehicle (i.p.) % (DBA/2 mice; [4]): −100%
- Tonic extension, Presence, Compared with Vehicle (i.p.) % (DBA/2 mice; [4]): −100%
- Wild running, Presence, Compared with Vehicle (i.p.) % (DBA/2 mice; [4]): −100%
- Slight sedation (mice affected) (RjOrl: Swiss mice): One mouse out of the 15 tested
- Forelimb clonus, Compared with Vehicle B (i.p.) % (RjOrl: Swiss mice; 30 minutes before the test): −88%
- Forelimb clonus, Compared with Vehicle B (i.p.) % (RjOrl: Swiss mice; 30 minutes before the test, listed as valproate): −88%
- Forelimb clonus (mean ± s.e.m.) (RjOrl: Swiss mice; 30 minutes before the test, score 0-2): 0.1 ± 0.1
